Results: patent publication US10287255B2, “Compounds as histone deacetylase 6 inhibitors and pharmaceutical compositions comprising the same” (CHONG KUN DANG PHARMACEUTICAL CORP., priority 2014, dated 2019)

Experiments:
[1] = target: T1, human recombinant HDAC1 (Homo sapiens, UniProt Q13547); assay: HDAC1 enzyme activity inhibition assay (in vitro, fluorimetric); format: biochemical; settings: human recombinant HDAC1, fluorimetric kit, 30° C. 60 minutes
T1 construct: purchased Enzo Life Science BML-SE456
T1 sequence (Q13547 whole entry): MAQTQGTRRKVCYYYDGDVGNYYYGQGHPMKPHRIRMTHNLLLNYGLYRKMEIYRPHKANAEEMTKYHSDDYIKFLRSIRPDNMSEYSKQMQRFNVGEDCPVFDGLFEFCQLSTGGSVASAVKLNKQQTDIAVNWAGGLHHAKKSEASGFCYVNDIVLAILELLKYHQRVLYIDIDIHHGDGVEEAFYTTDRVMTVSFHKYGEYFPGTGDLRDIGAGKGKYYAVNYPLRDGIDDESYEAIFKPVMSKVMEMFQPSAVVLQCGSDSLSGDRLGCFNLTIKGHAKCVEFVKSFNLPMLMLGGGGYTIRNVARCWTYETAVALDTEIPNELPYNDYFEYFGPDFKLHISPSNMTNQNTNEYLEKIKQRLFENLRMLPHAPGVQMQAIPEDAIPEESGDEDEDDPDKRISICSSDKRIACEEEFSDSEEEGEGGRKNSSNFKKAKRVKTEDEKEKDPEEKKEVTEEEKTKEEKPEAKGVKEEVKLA
In short: (§1)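 IC50 values derive from fluorescence (Ex 360, Em 460) after developer treatment (30 min) of reactions of recombinant human HDAC1 or HDAC6 with 10 μM Fluor de Lys-SIRT1 substrate (60 min, 30 °C). Compounds were serially diluted 5-fold; 0.3 μg enzyme was used for HDAC1, with HDAC6 tested identically.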

[2] = target: T2, human recombinant HDAC6 (Homo sapiens, UniProt Q9UBN7); assay: HDAC6 enzyme activity inhibition assay (in vitro, fluorimetric); format: biochemical; settings: for HDAC6 selectivity (fold): HDAC6 selectivity over HDAC1; for IC50: human recombinant HDAC6, fluorimetric kit, same protocol as HDAC1
T2 construct: purchased Calbiochem 382180
T2 sequence (Q9UBN7 1-1215): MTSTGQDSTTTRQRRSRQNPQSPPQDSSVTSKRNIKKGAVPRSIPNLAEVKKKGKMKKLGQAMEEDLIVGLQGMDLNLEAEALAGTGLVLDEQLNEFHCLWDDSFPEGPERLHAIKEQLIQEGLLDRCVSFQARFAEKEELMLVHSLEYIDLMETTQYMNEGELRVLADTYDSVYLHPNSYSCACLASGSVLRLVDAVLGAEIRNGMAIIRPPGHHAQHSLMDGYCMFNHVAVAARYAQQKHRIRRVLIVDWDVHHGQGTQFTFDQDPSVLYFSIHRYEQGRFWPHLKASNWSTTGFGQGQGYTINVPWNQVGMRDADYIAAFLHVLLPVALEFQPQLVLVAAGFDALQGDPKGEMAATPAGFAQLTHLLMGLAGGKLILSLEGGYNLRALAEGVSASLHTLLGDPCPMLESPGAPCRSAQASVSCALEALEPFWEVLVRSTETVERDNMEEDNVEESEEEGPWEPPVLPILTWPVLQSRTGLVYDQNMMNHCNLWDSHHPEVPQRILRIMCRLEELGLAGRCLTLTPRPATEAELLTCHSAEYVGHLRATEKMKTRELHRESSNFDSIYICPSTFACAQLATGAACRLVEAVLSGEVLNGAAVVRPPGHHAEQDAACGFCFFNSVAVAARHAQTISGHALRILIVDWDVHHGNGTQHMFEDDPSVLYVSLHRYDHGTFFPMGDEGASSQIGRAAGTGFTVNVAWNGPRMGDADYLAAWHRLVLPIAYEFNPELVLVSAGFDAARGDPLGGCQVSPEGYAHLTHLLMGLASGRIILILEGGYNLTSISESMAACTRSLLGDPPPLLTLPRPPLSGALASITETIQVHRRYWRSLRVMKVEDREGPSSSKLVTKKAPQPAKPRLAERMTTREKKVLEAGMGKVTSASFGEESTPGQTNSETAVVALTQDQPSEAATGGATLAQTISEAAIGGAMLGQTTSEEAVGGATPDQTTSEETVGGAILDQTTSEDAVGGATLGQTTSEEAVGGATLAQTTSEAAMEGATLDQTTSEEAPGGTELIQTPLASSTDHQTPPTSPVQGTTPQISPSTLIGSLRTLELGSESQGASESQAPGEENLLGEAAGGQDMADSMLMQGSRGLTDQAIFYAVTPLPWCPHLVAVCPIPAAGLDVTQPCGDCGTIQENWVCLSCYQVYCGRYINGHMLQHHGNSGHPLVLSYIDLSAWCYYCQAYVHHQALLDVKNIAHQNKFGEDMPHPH
In short: as §1

| Structure (SMILES) | IC50 [1] | HDAC6 selectivity (fold) [2] | IC50 [2] |
| --- | --- | --- | --- |
| C[C@@H]1CN(Cc2cccc(-n3cccc3)c2)C[C@H](C)N1Cc1ccc(C(=O)NO)cc1 [Compound 256, 4-(((2S,6R)-4-(3-(1H-pyrrol-1-yl)benzyl)-2,6-dimethylpiperazin-1-yl)methyl)-N-hydroxybenzamide] | 4.6 µM | 15 fold | 303 nM |
| C[C@@H]1CN(S(=O)(=O)c2ccccc2Cl)C[C@H](C)N1Cc1ccc(C(=O)NO)cc1 [Compound 110, 4-(((2S,6R)-4-((2-chlorophenyl)sulfonyl)-2,6-dimethylpiperazin-1-yl)methyl)-N-hydroxybenzamide] | 5 µM | 59 fold | 85 nM |
| C[C@@H]1CN(Cc2ccc(C(=O)NO)cc2F)C[C@H](C)N1Cc1cccc(CN2CCOCC2)c1 [Compound 696, 4-(((3R,5S)-3,5-dimethyl-4-(3-(morpholinomethyl)benzyl)piperazin-1-yl)methyl)-3-fluoro-N-hydroxybenzamide] | > 10 µM | >1000 fold | 10 nM |
| C[C@@H]1CN(Cc2ccc(C(=O)NO)nc2)C[C@H](C)N1Cc1cccc(CN2CCOCC2)c1 [Compound 609, 5-(((3R,5S)-3,5-dimethyl-4-(3-(morpholinomethyl)benzyl)piperazin-1-yl)methyl)-N-hydroxypicolinamide] | > 10 µM | >13.3 fold | 754 nM |
| C[C@@H]1CN(Cc2c[nH]c3cc(C(=O)NO)ccc23)C[C@H](C)N1Cc1ccccc1 [Compound 520, 3-(((3R,5S)-4-benzyl-3,5-dimethylpiperazin-1-yl)methyl)-N-hydroxy-1H-indole-6-carboxamide] | > 10 µM | >11 fold | 860 nM |
| C[C@@H]1CN(Cc2ccc(C(=O)NO)cc2)C[C@H](C)N1Cc1ccccc1C1=CCOCC1 [Compound 332, 4-(((3R,5S)-4-(2-(3,6-dihydro-2H-pyran-4-yl)benzyl)-3,5-dimethylpiperazin-1-yl)methyl)-N-hydroxybenzamide] | 21.9 µM | 207 fold | 106 nM |
| C[C@@H]1CN(C(=O)c2ccc(CCC(=O)NO)cc2)C[C@H](C)N1Cc1ccccc1 [Compound 824, 3-(4-((3R,5S)-4-benzyl-3,5-dimethylpiperazine-1-carbonyl)phenyl)-N-hydroxypropanamide] | 4.1 µM | 22 fold | 180 nM |
| CCN(CC)Cc1cccc(CN2[C@H](C)CN(Cc3ccc(C(=O)NO)cc3)C[C@@H]2C)c1 [Compound 426, 4-(((3R,5S)-4-(3-((diethylamino)methyl)benzyl)-3,5-dimethylpiperazin-1-yl)methyl)-N-hydroxybenzamide] | 5 µM | 35 fold | 142 nM |
| C[C@@H]1CN(Cc2ccc(C(=O)NO)cc2)C[C@H](C)N1Cc1ccc(CN2CCOCC2)cc1 [Compound 376, 4-(((3R,5S)-3,5-dimethyl-4-(4-(morpholinomethyl)benzyl)piperazin-1-yl)methyl)-N-hydroxybenzamide] | > 10 µM | >119 fold | 84 nM |
| Cc1nccn1-c1ccccc1CN1C[C@@H](C)N(Cc2ccc(C(=O)NO)cc2)[C@@H](C)C1 [Compound 305, 4-(((2S,6R)-2,6-dimethyl-4-(2-(2-methyl-1H-imidazol-1-yl)benzyl)piperazin-1-yl)methyl)-N-hydroxybenzamide] | 5.6 µM | 174 fold | 32 nM |
| CCN1[C@H](C)CN(Cc2ccc(C(=O)NO)cc2)C[C@@H]1C [Compound 147, 4-(((3R,5S)-4-ethyl-3,5-dimethylpiperazin-1-yl)methyl)-N-hydroxybenzamide] | > 10 µM | >90 fold | 111 nM |
| C[C@@H]1CN(Cc2ccc(C(=O)NO)cc2)C[C@H](C)N1C(=O)NCc1ccccc1 [Compound 161, (2S,6R)-N-benzyl-4-(4-(hydroxycarbamoyl)benzyl)-2,6-dimethylpiperazine-1-carboxamide] | 2.9 µM | 182 fold | 16 nM |
| C[C@@H]1CN(Cc2ccc(C(=O)NO)cc2)C[C@H](C)N1Cc1cccc(CN2CCCCC2)c1 [Compound 382, 4-(((3R,5S)-3,5-dimethyl-4-(3-(piperidin-1-ylmethyl)benzyl)piperazin-1-yl)methyl)-N-hydroxybenzamide] | > 10 µM | – | 83 nM |
| C[C@@H]1CN(Cc2ccc(C(=O)NO)cc2)C[C@H](C)N1Cc1cccc(-c2ccoc2)c1 [Compound 343, 4-(((3R,5S)-4-(3-(furan-3-yl)benzyl)-3,5-dimethylpiperazin-1-yl)methyl)-N-hydroxybenzamide] | 8.8 µM | 328 fold | 27 nM |
| C[C@@H]1CN(C(=O)c2cccc(-c3ccnc(F)c3)c2)C[C@H](C)N1Cc1ccc(C(=O)NO)cc1 [Compound 262, 4-(((2S,6R)-4-(3-(2-fluoropyridin-4-yl)benzoyl)-2,6-dimethylpiperazin-1-yl)methyl)-N-hydroxybenzamide] | 2.4 µM | 3 fold | 727 nM |
| C[C@@H]1CN(S(=O)(=O)c2ccccc2)C[C@H](C)N1Cc1ccc(C(=O)NO)cc1 [Compound 105, 4-(((2S,6R)-2,6-dimethyl-4-(phenylsulfonyl)piperazin-1-yl)methyl)-N-hydroxybenzamide] | 1.6 µM | 27 fold | 60 nM |
| CCN1CC=C(c2ccccc2CN2[C@H](C)CN(Cc3ccc(C(=O)NO)cc3)C[C@@H]2C)CC1 [Compound 485, 4-(((3R,5S)-4-(2-(1-ethyl-1,2,3,6-tetrahydropyridin-4-yl)benzyl)-3,5-dimethylpiperazin-1-yl)methyl)-N-hydroxybenzamide] | 14.7 µM | 101 fold | 145 nM |
| CCCCN1C[C@@H](C)N(Cc2ccc(C(=O)NO)cc2)[C@@H](C)C1 [Compound 274, 4-(((2S,6R)-4-butyl-2,6-dimethylpiperazin-1-yl)methyl)-N-hydroxybenzamide] | 13.5 µM | 36 fold | 378 nM |
| C[C@@H]1CN(Cc2ccc(C(=O)NO)cc2)C[C@H](C)N1Cc1ccc(CN2CCN(C)CC2)cc1 [Compound 468, 4-(((3R,5S)-3,5-dimethyl-4-(4-((4-methylpiperazin-1-yl)methyl)benzyl)piperazin-1-yl)methyl)-N-hydroxybenzamide] | 20 µM | 690 fold | 29 nM |
| C[C@@H]1CN(Cc2ccc(C(=O)NO)cc2)C[C@H](C)N1C(=O)c1cc[nH]n1 [Compound 403, 4-(((3R,5S)-3,5-dimethyl-4-(1H-pyrazole-3-carbonyl)piperazin-1-yl)methyl)-N-hydroxybenzamide] | 3.2 µM | 53 fold | 61 nM |
| COc1ccccc1NC(=O)N1C[C@@H](C)N(Cc2ccc(C(=O)NO)cc2)[C@@H](C)C1 [Compound 163, (3R,5S)-4-(4-(hydroxycarbamoyl)benzyl)-N-(2-methoxyphenyl)-3,5-dimethylpiperazine-1-carboxamide] | 1.1 µM | 2 fold | 497 nM |
| C[C@@H]1CN(Cc2ccc(C(=O)NO)cc2)C[C@H](C)N1C(=O)NCc1cccc(F)c1 [Compound 232, (2S,6R)-N-(3-fluorobenzyl)-4-(4-(hydroxycarbamoyl)benzyl)-2,6-dimethylpiperazine-1-carboxamide] | 7.9 µM | 28 fold | 286 nM |
| C[C@@H]1CN(Cc2ccc(C(=O)NO)cc2)C[C@H](C)N1Cc1ccncc1 [Compound 266, 4-(((3R,5S)-3,5-dimethyl-4-(pyridin-4-ylmethyl)piperazin-1-yl)methyl)-N-hydroxybenzamide] | 19.1 µM | 68 fold | 282 nM |
